Data published in ChEMBL document CHEMBL1138623, “Synthesis and evaluation of aryl-substituted diarylpropionitriles, selective ligands for estrogen receptor beta, as positron-emission tomographic imaging agents” (Bioorg Med Chem, 2009).

species: Homo sapiens; assay: Selectivity ratio of relative binding affinity for full-length human estrogen receptor beta to ratio of relative binding affinity for full length human estrogen receptor alpha

SMILES	RBA [%]
N#CC(Cc1ccc(O)c(I)c1)c1ccc(O)cc1 (stereo unspecified)	140
N#CC(Cc1ccc(O)c(Cl)c1)c1ccc(O)cc1 (stereo unspecified)	112
N#CC(Cc1ccc(O)c(CO)c1)c1ccc(O)cc1 (stereo unspecified)	19
N#CC(Cc1ccc(O)c(O)c1)c1ccc(O)cc1 (stereo unspecified)	106
CC(c1ccc(O)cc1)C(C#N)c1ccc(O)cc1 (stereo unspecified)	11
N#CC(c1ccc(O)cc1)C(CF)c1ccc(O)cc1 (stereo unspecified)	21
Cc1cc(CC(C#N)c2ccc(O)cc2)ccc1O (stereo unspecified)	139
N#CC(Cc1ccc(O)c(CCF)c1)c1ccc(O)cc1 (stereo unspecified)	58
N#CC(Cc1ccc(O)c(F)c1)c1ccc(O)cc1 (stereo unspecified)	272
N#CC(Cc1ccc(O)c(CCCF)c1)c1ccc(O)cc1 (stereo unspecified)	45
N#CC(Cc1ccc(O)c(Br)c1)c1ccc(O)cc1 (stereo unspecified)	108
